Assay results taken from US20060276406A1, “Methods of treating hepatitis C virus” (Schering Corporation, priority 2005, published 2006).

How the values were obtained:
[1] = Treatment study: plasma Cmin after oral dosing for 14 days in HCV genotype-1 patients; assay type: in vivo, human; conditions: for Plasma Mean Cmin at 0 hour (trough) predose: 14 days, preliminary mean
Procedure: FIG. 2 is a box plot showing trough plasma levels of a compound of Formula Ia measured on day 14 at various times when a compound of Formula Ia is administered twice per day (bid, left box) and when a compound of Formula Ia is administered three times per day (tid, right box). It has been determined that metabolism of compounds of the present invention is also affected by the patient's circadian rhythm. As shown in FIG. 2 (right hand box), plasma levels of the drug are highest in the morning, when measured 8 hours after the previous dose and before the morning dose is administered.

[2] = Solubility in water / aqueous systems; assay type: physicochemical

Plasma Mean Cmin at 0 hour (trough) predose ([1]; 100 mg BID oral, n = 12, HCV genotype-1 patients): Cmin = 12.7 ng/ml
Plasma Mean Cmin at 0 hour (trough) predose ([1]; 200 mg BID oral, n = 12, HCV genotype-1 patients): Cmin = 46.3 ng/ml
Plasma Mean Cmin at 0 hour (trough) predose ([1]; 400 mg BID oral, n = 11, HCV genotype-1 patients): Cmin = 48.8 ng/ml
Plasma Mean Cmin at 0 hour (trough) predose ([1]; 400 mg TID oral, n = 10, HCV genotype-1 patients): Cmin = 183 ng/ml
average Cmin plasma concentration maintained ([1]; all dosing regimens of Table 1): ≥ 10 ng/mL
solubility [2]: ~600 µg/mL
SMILES: CC(C)(C)NC(=O)N[C@H](C(=O)N1CC2C([C@H]1C(=O)NC(CC1CCC1)C(=O)C(N)=O)C2(C)C)C(C)(C)C (stereo partly drawn) [Formula Ia, (1R,5S)-N-[3-Amino-1-(Cyclobutylmethyl)-2,3-Dioxopropyl]-3-[2(S)-[[[(1,1-Dimethylethyl)Amino]Carbonyl]Amino]-3,3-Dimethyl-1-Oxobutyl]-6,6-Dimethyl-3-Azabicyclo[3.1.0]Hexan-2(S)-Carboxamide]
